Assay [1] has as its system IFN-β secretion from THP1 cells. Description: IFN-β secretion in THP1 cell culture (5 h). Format: cell-based, human. Particulars: for activation at 30 µM: Homo sapiens, read-out: % Effect at 30 μM relative to 2′3′-cGAMP. On the procedure: The ability of compounds to stimulate the secretion of interferon-beta from THP1 cells was measured using a human IFN-β AlphaLISA kit (Perkin Elmer, Cat. No. AL265F). The basic protocol is as follows:
The cell viability and count was ascertained using a Beckman Coulter V-Cell XR cell counter. The cell suspension was centrifuged at 200×g for 5 min at RT. Cells were resuspended to a density of 0.8×10^6/mL in 37° C. assay medium. Subsequent liquid transfers were performed using either a Matrix electronic multichannel pipette or an Agilent Bravo Automated Liquid Handling Platform.
The assay was started by dispensing 40 μL of the previously prepared cell suspension into the wells of the plate containing compounds. After 5 h incubation at 37° C., 5% CO2 in a humidified atmosphere, the plate of cells and compounds was centrifuged at 200×g for 5 min at RT. […] To these supernatant-containing wells was added 10 μL of 5× Anti-Analyte Acceptor beads (50 μg/mL of AlphaLISA HiBlock Buffer) and incubated for 30 min at RT while shaking on an orbital plate shaker. To each well was added 10 μL of 5× Biotinylated Antibody Anti-analyte (5 nM in AlphaLISA HiBlock Buffer) and incubated on an orbital plate shaker for 60 min at RT or overnight at 4° C. To each well was added 25 μL of 2× SA-Donor beads (80 μg/mL in AlphaLISA HiBlock Buffer) and incubated for 30-45 min at RT in the dark while shaking on an orbital plate shaker. The plate was then read on a Perkin Elmer Envision (λex680 nm, λem=570 nm). The percent effect of the AlphaLISA signal at each compound concentration was calculated based on 30 uM cGAMP positive controls and 0.3% DMSO negative controls. The plot of percent effect versus the log of compound concentration was fit with a 4-parameter concentration response equation to calculate EC50 values.
Compounds of the disclosure were evaluated for IFN-β secretion in THP1 cell culture as described above.

For another assay, the target named is T1, full-length HAQ STING (Homo sapiens, UniProt Q86WV6, G230A/H232R/R293Q/R71H).
T1 construct: made in house; host or cells: Trichoplusia ni (Hi-Five) insect cells, baculovirus generated in Sf21; crude membranes
Description: 3H-cGAMP filtration binding assay (HAQ STING). Particulars: competition with tritiated cGAMP ligand; T. ni cell membranes overexpressing full-length HAQ STING. From the text:
The ability of compounds to bind STING is quantified by the ability to compete with tritiated cGAMP ligand for human STING receptor membrane using a radioactive filter-binding assay. The binding assay employs STING receptor obtained from Hi-Five cell membranes overexpressing full-length HAQ STING prepared in-house and tritiated cGAMP ligand also purified in-house.
The ability of compounds to bind STING is quantified by their ability to compete with tritiated cGAMP ligand for human STING receptor membrane using a radioactive filter-binding assay. The binding assay employs STING receptor obtained from Trichoplusia ni cell membranes (T. ni; Expression Systems, cat #94-002F, www.expressionsystems.com) overexpressing full-length HAQ STING and tritiated cGAMP ligand.
The basic HAQ STING filtration assay protocol is as follows:
The compounds were serially titrated by the Hamilton STARPlus CORE in a 96-well plate (Greiner, #651201) using a 1:3 ten-point dose response format. […] 148 uL of prepared membrane was then manually added to each well of a 96-well deep-well polypropylene plate (Fisher Scientific, #12-566-121). Following membrane addition, 2 uL of either titrated test compound, DMSO control (Sigma #276855), or cold cGAMP control was added to the appropriate wells using a BIOMEK FX. Compound and membrane then preincubated for 60 min at RT to allow compound binding to equilibrate. Following equilibration, 8 nM of [^3H] c-GAMP ligand was prepared by diluting into assay buffer, and 50 uL of this working stock was then manually added to each well of the assay plate. Plates were then incubated at RT for 60 min, and the contents of each assay plate were then filtered through a 96-well GF/B filter plate (PerkinElmer, #6005250) using a TOMTEC MACH III Cell Harvester equipped with 20 mM HEPES buffer (Fisher Scientific, #BP299500). The filter plates were then dried at 55° C. for 30 min using a pressurized oven before 30 uL of ULTIMA GOLD F scintillate was added to each well. Tritium levels for each reaction well were then measured using a PerkinElmer TopCount plate reader.
After normalization to controls, the percent activity for each compound concentration was calculated by measuring the amount of remaining radioactivity. The plot of percent activity versus the log of compound concentration was fit with a 4-parameter dose response equation to calculate EC50 values.

The mark [2] stands for this setting: THP-1, 5 h, THP1 cells, 5 h incubation, compound at 30 μM, 30 uM cGAMP = 100%.
The mark [3] stands for this setting: THP1 cells, 5 h incubation, compound at 30 μM, 30 uM cGAMP = 100%.

Like-named read-outs stand apart in the source and are kept apart here.

T1 sequence (Q86WV6 with tags, fused parts or gaps R71H/G230A/H232R/R293Q): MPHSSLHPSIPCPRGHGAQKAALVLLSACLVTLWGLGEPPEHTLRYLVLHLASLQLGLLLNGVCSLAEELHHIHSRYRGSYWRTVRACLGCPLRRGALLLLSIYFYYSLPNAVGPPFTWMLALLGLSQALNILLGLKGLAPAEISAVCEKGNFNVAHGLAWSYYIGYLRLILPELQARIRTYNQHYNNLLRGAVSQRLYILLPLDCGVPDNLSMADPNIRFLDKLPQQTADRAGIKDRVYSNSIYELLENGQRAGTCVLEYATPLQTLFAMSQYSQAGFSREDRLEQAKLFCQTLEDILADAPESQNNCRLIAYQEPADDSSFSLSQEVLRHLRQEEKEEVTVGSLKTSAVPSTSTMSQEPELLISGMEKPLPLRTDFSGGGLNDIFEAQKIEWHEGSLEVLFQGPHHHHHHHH

In general, EC50 refers to the concentration that produces a half-maximal response. Turning to `Nc1nc2c(ncn2[C@@H]2O[C@@H]3COP(=O)(O)O[C@H]4C[C@H](n5ccc6c(=O)[nH]cnc65)O[C@@H]4COP(=O)(S)O[C@@H]2C3)c(=O)[nH]1` (stereo partly drawn) [Example 54, 2-amino-9-[(5S,7R,8R,12aR,14R,15aS)-2-hydroxy-2,10-dioxido-14-(4-oxo-3,4-dihydro-7H-pyrrolo[2,3-d]pyrimidin-7-yl)-10-sulfanyloctahydro-12H-5,8-methanofuro[3,2-l][1,3,6,9,11,2,10]pentaoxadiphosphacyclotetradecin-7-yl]-1,9-dihydro-6H-purin-6-one], in assay [1], the “% Effect at 30 μM relative to 2′3′-cGAMP” value was 68%. A half-maximal response on full-length HAQ STING (EC50) required 12 nM. As to `Nc1ncnc2c1ccn2[C@@H]1O[C@@H]2COP(=O)(S)O[C@@H]3C[C@@H](COP(=O)(S)O[C@H]2[C@@H]1F)O[C@H]3n1cnc2c(=O)[nH]ccc21` (stereo partly drawn) [Example 22, 1-[(5S,7R,8R,12aR,14R,15S,15aR)-14-(4-amino-7H-pyrrolo[2,3-d]pyrimidin-7-yl)-15-fluoro-2,10-dioxido-2,10-disulfanyloctahydro-12H-5,8-methanofuro[3,2-l][1,3,6,9,11,2,10]pentaoxadiphosphacyclotetradecin-7-yl]-1,5-dihydro-4H-imidazo[4,5-c]pyridin-4-one], in assay [1] (setting [2]), the activation at 30 µM is 100%. For `Nc1nc2c(ncn2[C@@H]2O[C@@H]3COP(=O)(S)O[C@H]4[C@@H](O)[C@H](n5ccc(=O)n6ccnc56)O[C@@H]4COP(=O)(S)O[C@@H]2[C@@H]3F)c(=O)[nH]1` (stereo partly drawn) [Example 31, 2-amino-9-[(5R,7R,8S,12aR,14R,15R,15aS,16R)-16-fluoro-15-hydroxy-2,10-dioxido-14-(5-oxoimidazo [1,2-a]pyrimidin-8(5H)-yl)-2,10-disulfanyloctahydro-12H-5,8-methanofuro[3,2-l][1,3,6,9,11,2,10]pentaoxadiphosphacyclotetradecin-7-yl]-1,9-dihydro-6H-purin-6-one], the activation at 30 µM in assay [1] (setting [2]) was 28%. This molecule had an EC50 on full-length HAQ STING of 16 nM. In the case of `Nc1nc2c(ncn2[C@@H]2O[C@@H]3COP(=O)(S)O[C@H]4[C@H](F)[C@H](n5ccc6c(=O)[nH]cnc65)O[C@@H]4COP(=O)(S)O[C@@H]2[C@@H]3F)c(=O)[nH]1` (single isomer, unassigned) [Example 39], the activation at 30 µM in assay [1] (setting [2]) was determined as 166%. On full-length HAQ STING, this molecule registered an EC50 of 1 nM. For the molecule `Nc1ccnc2c1nnn2[C@H]1C[C@@H]2OP(=O)(S)OC[C@H]3O[C@@H](n4ccc(=O)n5ccnc45)[C@H](OP(=O)(S)OC[C@H]2O1)[C@@H]3O` (stereo partly drawn) [Example 18, 8-[(5R,7R,8R,12aR,14R,15aS,16R)-14-(7-amino-3H-[1,2,3]triazolo[4,5-b]pyridin-3-yl)-16-hydroxy-2,10-dioxido-2,10-disulfanyloctahydro-12H-5,8-methanofuro[3,2-l][1,3,6,9,11,2,10]pentaoxadiphosphacyclotetradecin-7-yl]imidazo[1,2-a]pyrimidin-5(8H)-one], the activation at 30 µM in assay [1] (setting [2]) is 124%. Moreover, the concentration giving a half-maximal response (EC50) at full-length HAQ STING was 126 nM.

In the case of `Nc1ncnc2c1ncn2[C@@H]1O[C@@]23CO[C@@H]1[C@@H]2OP(=O)(S)OC[C@H]1O[C@@H](n2cnc4c(=O)n5cc[nH]c5nc42)[C@H](OP(=O)(S)OC3)[C@@H]1F` (single isomer, unassigned) [Example 25], in assay [1] (setting [3]), the “% Effect at 30 μM relative to 2′3′-cGAMP” value was found to be 131%. Besides, the EC50 on full-length HAQ STING worked out at 1 nM. Consider `Nc1ncnc2c1ncn2[C@@H]1S[C@@H]2COP(=O)(S)OC3[C@H](n4cnc5c(=O)n6cc[nH]c6nc54)O[C@H](COP(=O)(S)OC2C1O)[C@H]3F` (stereo in doubt) [Example 17, 3-[(5R,7R,8R,12aR,14R,15S,15aR,16R)-14-(6-amino-9H-purin-9-yl)-16-fluoro-15-hydroxy-2,10-dioxido-2,10-disulfanyloctahydro-12H-5,8-methanothieno[3,2-l][1,3,6,9,11,2,10]pentaoxadiphosphacyclotetradecin-7-yl]-3,5-dihydro-9H-imidazo[1,2-a]purin-9-one], for which the activation at 30 µM in assay [1] (setting [2]) stood at 122%. On full-length HAQ STING, this molecule gave an EC50 of 3 nM. The molecule `Nc1ncnc2c1nnn2[C@@H]1O[C@@H]2COP(=O)(S)O[C@@H]3[C@H](F)[C@@H](COP(=O)(S)O[C@H]2[C@@H]1F)O[C@H]3n1cnc2c(=O)n3cc[nH]c3nc21` (single isomer, unassigned) [Example 24] returned a half-maximal effective concentration (EC50) on full-length HAQ STING of 411 nM. Consider `Nc1ccnc2c1ccn2[C@H]1C[C@@H]2OP(=O)(S)OC[C@H]3O[C@@H](n4ccc(=O)n5ccnc45)[C@H](OP(=O)(S)OC[C@H]2O1)[C@@H]3O` (stereo partly drawn) [Example 34, 8-[(5R,7R,8R,12aR,14R,15aS,16R)-14-(4-amino-1H-pyrrolo[2,3-b]pyridin-1-yl)-16-hydroxy-2,10-dioxido-2,10-disulfanyloctahydro-12H-5,8-methanofuro[3,2-l][1,3,6,9,11,2,10]pentaoxadiphosphacyclotetradecin-7-yl]imidazo[1,2-a]pyrimidin-5(8H)-one], for which the activation at 30 µM in assay [1] (setting [2]) was found to be 157%. On full-length HAQ STING, this molecule came in with an EC50 of 1120 nM. Regarding `Nc1nc2c(ncn2[C@@H]2O[C@@H]3COP(=O)(S)O[C@H]4[C@@H](O)[C@H](n5cnc6c(=O)[nH]c7nccn7c65)O[C@@H]4COP(=O)(S)O[C@@H]2[C@@H]3F)c(=O)[nH]1` (single isomer, unassigned) [Example 33], the “% Effect at 30 μM relative to 2′3′-cGAMP” value in assay [1] (setting [3]) amounted to 83%. The concentration for a half-maximal effect (EC50) on full-length HAQ STING amounted to 90 nM. For `Nc1nc2c(ncn2[C@@H]2O[C@@H]3COP(=O)(S)O[C@H]4[C@@H](O)[C@H](n5cnc6c(=O)[nH]c7nccn7c65)O[C@@H]4COP(=O)(S)O[C@@H]2[C@@H]3F)c(=O)[nH]1` (single isomer, unassigned) [Example 32] the same measures were 141% and 14 nM. Turning to `Nc1ncnc2c1ncn2[C@@H]1O[C@@H]2COP(=O)(S)O[C@@H]3[C@@H](F)[C@@H](COP(=O)(S)O[C@H]2[C@@H]1F)O[C@H]3n1cnc2c(=O)[nH]ccc21` (stereo partly drawn) [Example 21, 1-[(5R,7R,8S,12aR,14R,15S,15aR,16S)-14-(6-amino-9H-purin-9-yl)-15,16-difluoro-2,10-dioxido-2,10-disulfanyloctahydro-12H-5,8-methanofuro[3,2-1][1,3,6,9,11,2,10]pentaoxadiphosphacyclotetradecin-7-yl]-1,5-dihydro-4H-imidazo[4,5-c]pyridin-4-one], the activation at 30 µM in assay [1] (THP-1, THP1 cells, 5 h incubation, compound at 30 μM, 30 uM cGAMP = 100%) was 143%. For `Nc1ncnc2c1nnn2[C@@H]1O[C@@H]2COP(=O)(S)O[C@@H]3[C@H](F)[C@@H](COP(=O)(S)O[C@H]2[C@@H]1F)O[C@H]3n1cnc2c(=O)n3cc[nH]c3nc21` (single isomer, unassigned) [Example 23], on full-length HAQ STING, the half-maximal effective concentration (EC50) is 28 nM.
